Assay results as given in patent publication US20110070232A1, “Combination Therapy with an Antitumor Alkaloid” (Pharma Mar, S.A., priority 2008, published 2011).
pIC50: −log10 of the molar value. Read-outs that look alike come from different tables or passages of the source.

Legend:
[1] = test system: Hs746T tumors; type: in vivo, mice; conditions: for % T/C on day 14 / % T/C on day 19 / % T/C on day 22 / % T/C on day 26 / % T/C on day 29 / % T/C on day 32 / % T/C on day 39: PM00104 0.90 IV, DPI 14, 21, 28
Experimental: Female athymic nude mice (Harlan Sprague Dawley, Madison, Wis.) were utilized for all experiments. Animals were housed in ventilated rack caging with food and water ad libitum. The mice were acclimated for at least 5 days prior to tumor implantation with a tumor cell suspension.
The tumor model used in these studies was Hs746T cell line, which was obtained from the ATCC (Manassas, Va.).
Treatments were initiated on DPI 14.
(§1) Tumor size measurements were recorded twice weekly from the treatment initiation until the termination of the study.
(§2) Mean, standard deviation and standard error of the mean were determined for tumor volume for all animal groups at all assessments. Student's t test was performed on tumor volumes at each measurement day, including at the end of the study, to determine whether there were any statistically significant differences between combination treatment groups and single monotherapy treatment groups.

[2] = test system: LoVo (colon cancer) cell line; assay: IC50 determination, MIT (tetrazolium) assay, 72 h (Example 18); type: cell-based, human; conditions: 72 hours of drug exposure
Experimental: (§3) Before plating, cell cultures were trypsinized and cell number estimated using an automated flow cytometer.
(§4) Cells were harvested and seeded in 96 well microtiter plates at the appropriate cell density (5,000-10,000 cells) in 150 μL of media and incubated for 24 hours to allow the cells to attach before drug addition.
(§5) After the incubation period (72 hours), 50 μL of MIT solution was added to each microtiter well and incubated for further 8 hours at 37° C. The culture medium was then removed and 50 μl, of DMSO were added to dissolve the MIT crystals. Optical densities were read at 540 nm on spectrophotometer microplate reader.
(§6) IC50 values were calculated from an average of two to four assays for each of the test agents.

[3] = test system: HT-29 (colon cancer) cell line; assay: as above; type: cell-based, human; conditions: HT-29, 72 hours of drug exposure
Experimental: as §3, §4, §5, §6

[4] = test system: AGS human gastric carcinoma cell line; assay: IC50 determination, MTS assay, 72 h (Example 1); type: cell-based; conditions: 72 hours of drug exposure
Experimental: (§7) The human gastric carcinoma cell lines selected for this assay were the following: Hs746T, HGC-27, and AGS cell lines. Hs746T and AGS cell lines were grown in Dulbecco's modified Eagle's medium (DMEM) supplemented with 10% Fetal Bovine Serum (FBS), 1.5 g/L sodium bicarbonate, 4.5 g/L glucose and 4 mM L-glutamine. HGC-27 cell line was grown in Iscove's modified Dulbecco's medium (IMDM) supplemented with 20% FBS and 2 mM L-glutamine.
(§8) The day before plating, the cells were fed with fresh, complete growth media. On the harvest (plating) day, cells were counted by Trypan Blue exclusion staining method.
(§9) Cells were harvested and seeded in 96 well microtiter plates at 10,000 cells density in 150 μL of media and incubated for 24 hours to allow the cells to attach before drug addition. To collect reference data, the MTS assay was done on untreated cells at time 0 (after incubation of cells for 24 hours).
(§10) The cytotoxic effect was measured by the MTS Assay (Tetrazolium), which is a colorimetric method for determining the number of viable cells. After the incubation period (24 hours for the Day 0 plate and 72 hours for the Test and Control plates), 25 μL of MTS+PMS solution was added to each microtiter well and incubated for 4 hours at 37° C. Plates were then removed from incubator and placed on plate shaker for 5 minutes (covered with aluminum foil for protection from light). Optical densities were read at 490 nm on spectrophotometer plate reader.
as §6

[5] = test system: Hs746T human gastric carcinoma cell line; assay: IC50 determination, MTS assay, 72 h (Example 1); type: cell-based; conditions: 72 hours of drug exposure
Experimental: as §7, §8, §9, §10, §6

[6] = test system: HGC-27 human gastric carcinoma cell line; assay: IC50 determination, MTS assay, 72 h (Example 1); type: cell-based; conditions: 72 hours of drug exposure
Experimental: as §7, §8, §9, §10, §6

[7] = test system: HCT-116 (colon cancer) cell line; assay: IC50 determination, MIT (tetrazolium) assay, 72 h (Example 18); type: cell-based, human; conditions: HCT-116, 72 hours of drug exposure
Experimental: HCT-116 cells were grown in McCoy's supplemented with 10% Fetal Bovine Serum (FBS), 1% penicillin/streptomycin and 2 mM L-glutamine.
as §3, §4, §5, §6

[8] = test system: MRI-H-254 tumors; type: in vivo, mice
Experimental: Female athymic nude mice (Harlan Sprague Dawley, Madison, Wis.) were utilized for all experiments. Animals were housed in ventilated rack caging with food and water ad libitum. The mice were acclimated for at least 5 days prior to tumor implantation with tumor fragments.
Treatments were initiated on DPI 20.
as §1, §2

[9] = docetaxel 8 IP, oxaliplatin 4 IP mg/kg/day (G4, G6, G8, G10)
[10] = docetaxel 16 IP, oxaliplatin 8 IP mg/kg/day (G2, G3, G5, G7, G9)
[11] = PM00104 0.90 IV, docetaxel 8 IP, oxaliplatin 4 IP mg/kg/day (G4, G6, G8, G10), DPI 20, 27, 34
[12] = PM00104 0.90 IV, docetaxel 16 IP, oxaliplatin 8 IP mg/kg/day (G2, G3, G5, G7, G9), DPI 20, 27, 34

O=C1[O][Pt]2([NH][C@@H]3CCCC[C@H]3[NH]2)[O]C1=O [Oxaliplatin, oxaliplatin]
% T/C on day 14 [1, 9]: 99.9% | % T/C on day 19 [1, 9]: 79.9% | % T/C on day 22 [1, 9]: 83.8% | % T/C on day 26 [1, 9]: 78.6% | % T/C on day 29 [1, 9]: 84.2% | % T/C on day 32 [1, 9]: 87.5% | % T/C on day 39 [1, 9]: 108.4% | % T/C on day 14 [1, 10]: 99.6% | % T/C on day 19 [1, 10]: 83.5% | % T/C on day 22 [1, 10]: 84.9% | % T/C on day 26 [1, 10]: 89.1% | % T/C on day 29 [1, 10]: 84.5% | % T/C on day 32 [1, 10]: 91.2% | % T/C on day 39 [1, 10]: 102.9% | % Inhibition ([1]; day 14, PM00104 0.9 and oxaliplatin 4 mg/kg/day): 0.1% | % Inhibition ([1]; day 14, PM00104 0.9 and oxaliplatin 8 mg/kg/day): 0.4% | % Inhibition ([1]; day 19, PM00104 0.9 and oxaliplatin 4 mg/kg/day): 20.1% | % Inhibition ([1]; day 19, PM00104 0.9 and oxaliplatin 8 mg/kg/day): 16.5% | % Inhibition ([1]; day 22, PM00104 0.9 and oxaliplatin 4 mg/kg/day): 16.2% | % Inhibition ([1]; day 22, PM00104 0.9 and oxaliplatin 8 mg/kg/day): 15.1% | % Inhibition ([1]; day 26, PM00104 0.9 and oxaliplatin 4 mg/kg/day): 21.4% | % Inhibition ([1]; day 26, PM00104 0.9 and oxaliplatin 8 mg/kg/day): 10.9% | % Inhibition ([1]; day 29, PM00104 0.9 and oxaliplatin 4 mg/kg/day): 15.8% | % Inhibition ([1]; day 29, PM00104 0.9 and oxaliplatin 8 mg/kg/day): 15.5% | % Inhibition ([1]; day 32, PM00104 0.9 and oxaliplatin 4 mg/kg/day): 12.5% | % Inhibition ([1]; day 32, PM00104 0.9 and oxaliplatin 8 mg/kg/day): 8.8% | % Inhibition ([1]; day 39, PM00104 0.9 and oxaliplatin 4 mg/kg/day): −8.4% | % Inhibition ([1]; day 39, PM00104 0.9 and oxaliplatin 8 mg/kg/day): −2.9% | pIC50 [2]: 5.49 | pIC50 [3]: 4.42 | IC50 [4]: 289 ng/mL | IC50 [5]: 8.14 µg/mL | IC50 [6]: 192 ng/mL | pIC50 [7]: 3.85 | % T/C on day 20 [8, 11]: 94.5% | % T/C on day 23 [8, 11]: 118.5% | % T/C on day 27 [8, 11]: 113.6% | % T/C on day 33 [8, 11]: 107.6% | % T/C on day 36 [8, 11]: 115.1% | % T/C on day 40 [8, 11]: 115.0% | % T/C on day 48 [8, 11]: 92.4% | % T/C on day 20 [8, 12]: 95.1% | % T/C on day 23 [8, 12]: 100.9% | % T/C on day 27 [8, 12]: 77.2% | % T/C on day 30 [8, 12]: 81.7% | % T/C on day 33 [8, 12]: 75.0% | % T/C on day 36 [8, 12]: 71.1% | % T/C on day 40 [8, 12]: 67.5% | % T/C on day 48 [8, 12]: 55.9% | % Inhibition ([8]; day 20, PM00104 0.9 and oxaliplatin 4 mg/kg/day): 5.5% | % Inhibition ([8]; day 20, PM00104 0.9 and oxaliplatin 8 mg/kg/day): 4.9% | % Inhibition ([8]; day 23, PM00104 0.9 and oxaliplatin 4 mg/kg/day): −18.5% | % Inhibition ([8]; day 23, PM00104 0.9 and oxaliplatin 8 mg/kg/day): −0.9% | % Inhibition ([8]; day 27, PM00104 0.9 and oxaliplatin 4 mg/kg/day): −13.6% | % Inhibition ([8]; day 27, PM00104 0.9 and oxaliplatin 8 mg/kg/day): 22.8% | % Inhibition ([8]; day 30, PM00104 0.9 and oxaliplatin 4 mg/kg/day): −17.1% | % Inhibition ([8]; day 30, PM00104 0.9 and oxaliplatin 8 mg/kg/day): 18.3% | % Inhibition ([8]; day 33, PM00104 0.9 and oxaliplatin 4 mg/kg/day): −7.6% | % Inhibition ([8]; day 33, PM00104 0.9 and oxaliplatin 8 mg/kg/day): 25.0% | % Inhibition ([8]; day 36, PM00104 0.9 and oxaliplatin 4 mg/kg/day): −15.1% | % Inhibition ([8]; day 36, PM00104 0.9 and oxaliplatin 8 mg/kg/day): 28.9% | % Inhibition ([8]; day 40, PM00104 0.9 and oxaliplatin 4 mg/kg/day): −15.0% | % Inhibition ([8]; day 40, PM00104 0.9 and oxaliplatin 8 mg/kg/day): 32.5% | % Inhibition ([8]; day 48, PM00104 0.9 and oxaliplatin 4 mg/kg/day): 7.6% | % Inhibition ([8]; day 48, PM00104 0.9 and oxaliplatin 8 mg/kg/day): 44.1%
